Test results: patent EP0449955B1, “SYNTHETIC HIV-LIKE PEPTIDES, THEIR COMPOSITIONS AND USES” (CLARITY TECHNOLOGIES INCORPORATED, priority 1988, dated 1996)
Entries after “also recorded” stand apart in the source; their conditions may differ.

Key:
antibodies to HIV-2 = assay: Rapid EIA with latex-immobilized peptide reagents, HIV-2; type: binding; details: free peptide passively adsorbed onto carboxylate latex
Protocol: A 125 microliter volume of 10% latex was added to a 375 microliter volume of deionized water, and mixed with an equal volume (0.5ml) of 1M carbodiimide, pH 4.5. The mixture was shaken gently a room temperature for 1 hour, and then washed 3 times by centrifugation at 9,000 x g for 10 minutes, removal of supernate, and resuspension of the pellet in a 12-14 ml volume of deionized water, pH 4.5. The free peptides at 1 mg/ml concentration (500 micrograms/ml of each peptide 4S36 and 5S70), or the peptide-BSA conjugate of peptides 4S36 and 5S70 at 500 micrograms/ml were added to the final washed activated latex pellet (1 ml volume of peptide containing solution per 125 microliters original volume of latex). […] It was determined that this stock solution of latex coated with peptide-BSA conjugate could be diluted 1:10-1:30 with latex diluent buffer for use in the rapid EIA described below.
Serum specimens were diluted 1:8 for the rapid EIA in a serum diluent buffer consisting of 0.03M Tris, pH 8 containing 0.8% NaCl, 0.05% NaN₃, 0.05% Triton x-100 (trademark). […] The reaction was stopped after 3-4 minutes by adding a drop of 4N H₂SO₄, and the test device could be retained as a permanent record of positive (blue-purple color) or negative (white membrane) until the results were recorded. […]

SIV/HIV-2 antibodies = assay: EIA of HIV-2 gp32 peptide-protein conjugates against macaque serum pools; type: binding; details: peptide conjugated via C-terminus to BSA (SMCC), coated at 10 micrograms peptide/ml; 1:101 dilution of SIV+ macaque serum pool; Figure 5
Protocol: The free peptides or peptide-protein conjugates of Figures 1-13 were initially screened for immunoreactivity by coating each well of polystyrene microtiter EIA plates (Costar, Cambridge, Massachusetts, U.S.A.) with 0.2 ml amounts of concentrations of 5-50 micrograms/ml peptide in Tris buffer, 10 mM, pH 8.0, at 4°C overnight. Peptides or peptide-protein conjugates showing immunoreactivity by EIA were then further diluted for coating to determine the minimal concentrations required that allowed maximal immunoreactivity with antibodies to HIV, and minimal nonspecific reactivity with normal sera. The EIA tests were performed as follows: The coating solution was removed from each well and the wells were blocked at 37°C for 30 minutes with a solution of 50 mM phosphate, 100 mM NaCl, pH 7.4, 1% BSA, 0.5% gelatin. The wells were then aspirated dry with a microtiter plate washer and washed 3 times with a solution of 50 mM phosphate, 100 mM NaCl, .05% Tween 20, (trademark) pH 7.4 (PBST). […] Reactions were stopped with 50 microliters of 4N H₂SO₄, and the color development was quantitated in a Multiscan plate reader at A₄₉₂. […] Most peptides and peptide conjugates were initially screened against a 1:101 dilution of pools of HIV positive or HIV negative sera, and the same serum pool was used to allow quantitative comparison of immunoreactivity of different free peptides or peptide-protein conjugates.
The peptides in Figures 1 and 5 were synthesized as described in Example 1 and conjugated to KLH or BSA as described in Example 2. These peptide-protein conjugates were coated to polystyrene microtiter plates all at a concentration 10 micrograms peptide/ml and evaluated for immunoreactivity as described in Example 3, using a 1:101 dilution of a pool of sera (HIV+/SIV+, respectively) containing antibodies to HIV-1 (Figure 1) or to HIV-2 (Figure 5), as well as pooled serum (HIV-/SIV-, respectively) containing no antibodies to HIV-1 or HIV-2. […]

## ARLNSWGCAFRQVCHGC [2S25]
Antibodies to HIV-2
  discrimination of HIV-2+ from HIV-2- serum samples: capable of discriminating
SIV/HIV-2 antibodies
  immunoreactivity with SIV/HIV-2 antibodies: maximally immunoreactive; also recorded: Significant immunoreactivity; also recorded: best immunoreactivity
